Experimental data reported in patent US6251932A, “Immunophilin ligands” (ASTA Medica AG, priority 1998, dated 2001).
Where two headings read alike, the source gives them in different places.

Tests used:
[1] = system: T cells stimulated with OKT-3; test: IL-2 proliferation test: 3H-thymidine incorporation in T cells stimulated with OKT-3 (CD3-induced proliferation); type: cell-based; details: Compound [10 μmol], OKT-3 1 μg/ml, 45 hours; for inhibition: T-cell
Procedure: The IL-2 proliferation test is based on the incorporation of ^3 H-thymidine in T cells stimulated with OKT-3 (human anti-CD-3-antibodies) and is carried out by inoculating 100,000 T cells into microtitre plates in 150 μl of culture medium per well, stimulated by addition of OKT-3 (1 μg/ml) and incubated for 45 hours in each case with one of the compounds of Formula I. After this incubation time, 10 μl of the ^3 H-thymidine solution (0.5 μCi) are pipetted into each well. The mixture is then incubated in a 5% CO2 atmosphere at 37° C. for 6 hours. After harvesting the cells, the radioactivity is quantified in a B-counter.

human cyclophilin B = human cyclophilin B (Homo sapiens, UniProt P23284); test: PPIase test: inhibition of human cyclophilin B (Suc-Ala-Ala-Pro-Phe-Nan, chymotrypsin); type: biochemical; details: Compound [10 μmol]; preincubated 15 minutes at 4° C. with 10 nmol Cyp B
Procedure: The compounds of Formula I of the present invention are distinguished by immunophilin binding and inhibit isomerase activity. This prolyl isomerase activity is tested according to a conventional, well known enzyme test described in G. Fischer, H. Bang. Mech, Biomed. Biochim. Acta, 43, 1101-1111; G. Fischer, H. Bang, A Schellenberger, Biochim. Biophys. Acta, 791, 87-97, 1984; D. H. Rich et al., J. Med. Chem. 38, 4164-4170, 1995.
The compounds of Formula I of the present invention are distinguished by immunophilin binding and inhibit its peptidyl-prolyl cis-trans isomerase (PPlase) activity. […] This PPlase activity is determined by the aforementioned well known enzyme test.
The compounds of Formula I are preincubated at 4° C. for 15 minutes together with 10 nmol of Cyp B. The enzyme reaction is started using the test peptide Suc-Ala-Ala-Pro-Phe-Nan after addition of chymotrypsin and HEPES buffer. The change in extinction at 390 nm is then monitored and analyzed. The photometrically determined change in extinction results from two subreactions: a) the rapid chymotryptic cleavage of the trans peptide; b) the nonenzymatic cis-trans isomerization, which is catalysed by cyclophilins.

[2] = kidneys, neurotoxicity; cited from earlier work
FKBP = details: cited from earlier work
[3] = system: bronchial asthma and underlying inflammations; details: animal experiments and clinical studies; cited from earlier work
IL-2 proliferation [4] = details: published, cited from earlier work
IL-2 proliferation [5] = test: Inhibition of IL-2 proliferation (published indoline-2-carboxamide); type: cell-based; details: 10 μmol; new measurements
Description: A further compound having immunosuppressant properties was discovered during the screening of substance mixtures (G. Quinkert, H. Bang and D. Reichert, Helv. Chim. Acta 1996, 79, 1260).

Sequence of human cyclophilin B (P23284 34-216): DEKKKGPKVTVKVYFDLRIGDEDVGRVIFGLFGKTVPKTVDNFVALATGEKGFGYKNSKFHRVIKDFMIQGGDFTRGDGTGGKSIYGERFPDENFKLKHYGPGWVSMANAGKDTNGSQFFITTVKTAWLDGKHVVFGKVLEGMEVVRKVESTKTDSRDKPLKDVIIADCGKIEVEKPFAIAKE

Row | inhibition at 10 µM (human cyclophilin B) [%] | Compound | inhibition [1] [%] | also measured
1 | 40 | COCCNC(=O)[C@H]1Cc2ccccc2N1C(=O)[C@@H]1Cc2ccccc2N1S(=O)(=O)c1ccc(NC(C)=O)cc1 [Example 2] | 85 | 
2 | 40 | COCCNC(=O)[C@@H]1Cc2ccccc2N1C(=O)[C@@H]1Cc2ccccc2N1S(=O)(=O)c1ccc(NC(C)=O)cc1 [Example 1] | 83 | 
3 | 0 to 20 | CC(=O)Nc1ccc(S(=O)(=O)N2c3ccccc3C[C@@H]2C(=O)N2c3ccccc3C[C@@H]2C(=O)O)cc1 (racemic) [Example 23, (2RS)-1-({(2RS)-1-[4-(acetylamino)phenylsulfonyl]indolin-2-yl}-carbonyl)indoline-2-carboxylic acid] | 46 | 
4 | 40 | COCCNC(=O)[C@@H]1Cc2ccccc2N1C(=O)[C@@H]1Cc2ccccc2N1S(=O)(=O)c1ccc(N)cc1 [Example 6, (2S)-1-[((2S)-1-(4-aminophenylsulfonyl)indolin-2-yl)carbonyl]-N-(2-methoxyethyl)indoline-2-carbamide] | 84 | 
5 | 60 | COC(=O)[C@H](CCCCNC(=O)OCc1ccccc1)NC(=O)[C@@H]1Cc2ccccc2N1S(=O)(=O)c1ccc(NC(C)=O)cc1 [Example 12, (S)-N-{(2S)-1-[4-(acetylamino)phenylsulfonyl]indolin-2-yl}carbonyl-N-(benzyloxycarbonyl)lysine methyl ester] | 79 | 
6 | 0 to 20 | COC(=O)[C@H]1Cc2ccccc2N1S(=O)(=O)c1ccc(NC(C)=O)cc1 [Example 20, Methyl (2R)-[4-(acetylamino)phenylsulfonyl]indoline-2-carboxylate] | 15 | 
7 | 20 to 40 | COCCNC(=O)C1Cc2ccccc2N1C(=O)C1Cc2ccccc2N1S(=O)(=O)c1ccc(NC(C)=O)cc1 (racemic) [Example 5, (2R,S)-1-[((2R,S)-1-(4-acetylaminophenylsulfonyl)indolin-2-yl)-carbonyl]-N-(2-methoxyethyl)indoline-2-carbamide] | 85 | 
8 | 40 to 60 | COCCNC(=O)[C@@H]1Cc2ccccc2N1C(=O)C1CCN(S(=O)(=O)c2ccc(N)cc2)CC1 [Example 8, (2S)-1-[((2S)-1-(4-aminophenylsulfonyl)-4-piperidinyl)carbonyl]-N-(2-methoxyethyl)indoline-2-carbamide] | 71 | 
9 | 40 | COCCNC(=O)[C@@H]1Cc2ccccc2N1C(=O)[C@@H]1CCCN1S(=O)(=O)c1ccc(N)cc1 [Example 7, (^2 S)-1-[((2S)-1-(4-aminophenylsulfonyl)prolyl)carbonyl]-N-(2-methoxyethyl)indoline-2-carbamide] | 79 | 
10 | 0 to 20 | CC(=O)Nc1ccc(S(=O)(=O)N2c3ccccc3C[C@@H]2C(=O)O)cc1 [Example 21, (2R)-[4-(acetylamino)phenylsulfonyl]indoline-2-carboxylic acid] | 12 | 
11 | 40 | COCCNC(=O)[C@@H]1Cc2ccccc2N1C(=O)[C@H]1Cc2ccccc2N1S(=O)(=O)c1ccc(NC(C)=O)cc1 [Example 3] | 84 | 
12 |  | C=CC[C@@H]1/C=C(\C)C[C@H](C)C[C@H](OC)[C@H]2O[C@@](O)(C(=O)C(=O)N3CCCC[C@H]3C(=O)O[C@H](/C(C)=C/[C@@H]3CC[C@@H](O)[C@H](OC)C3)[C@H](C)[C@@H](O)CC1=O)[C@H](C)C[C@@H]2OC [FK 506] |  | side effects [2]: manifold side effects, in particular of the kidneys, and neurotoxicity; binding to FKBP (FKBP): bind with high affinity; therapeutic effect in bronchial asthma [3]: favorable therapeutic in bronchial asthma and underlying inflammations
13 | 30 | COC(=O)[C@H]1Cc2ccccc2N1C(=O)[C@H]1Cc2ccccc2N1S(=O)(=O)c1ccc(NC(C)=O)cc1 (racemic) [Example 22, Methyl (2RS)-1-({(2RS)-1-[4-(acetylamino)phenylsulfonyl]indolin-2-yl}carbonyl)indoline-2-carboxylate] | 43 | 
14 | 20 | COCCNC(=O)[C@@H]1Cc2ccccc2N1C(=O)[C@@H]1Cc2ccccc2N1S(=O)(=O)c1ccc2ccccc2c1 [Example 15, (2S)-1-[((2S)-1-(2-Naphthalenylsulfonyl)indolin-2-yl)carbonyl]-N-(2-methoxyethyl)indoline-2-carbamide] | 56 | 
15 | 40 to 60 | COCCNC(=O)[C@@H]1Cc2ccccc2N1C(=O)C1CCN(S(=O)(=O)c2ccc(NC(C)=O)cc2)CC1 [Example 9] | 75 | 
16 | 40 | Cc1ccc(S(=O)(=O)N2c3ccccc3C[C@H]2C(=O)N2c3ccccc3C[C@H]2C(=O)Nc2ccncc2)cc1 [Example 19, (2S)-1-[((2S)-1-(4-methylphenylsulfonyl)indolin-2-yl)carbonyl]-(4-pyridine)indoline-2-carbamide] | 64 | 
17 | 40 | Cc1ccc(S(=O)(=O)N2c3ccccc3C[C@H]2C(=O)N2c3ccccc3C[C@H]2C(=O)NCCc2ccccn2)cc1 [Example 18, (2S)-1-[((2S)-1-(4-methylphenylsulfonyl)indolin-2-yl)carbonyl]-N^2-(ethyl-2-pyridine)indoline-2-carbamide] | 59 | 
18 | 20 | COCCNC(=O)[C@@H]1Cc2ccccc2N1C(=O)[C@@H]1Cc2ccccc2N1S(=O)(=O)c1cccc2ccccc12 [Example 14, (2S)-1-[((2S)-1-(1-naphthalenylsulfonyl)indolin-2-yl)carbonyl]-N-(2-methoxyethyl)indoline-2-carbamide] | 48 | 
19 | 40 | Cc1ccc(S(=O)(=O)N2c3ccccc3C[C@H]2C(=O)N2c3ccccc3C[C@H]2C(=O)NCCN2CCOCC2)cc1 [Example 17, (2S)-1-[((2S)-1-(4-methylphenylsulfonyl)indolin-2-yl)carbonyl]-N^2-(N-ethylmorpholine)indoline-2-carbamide] | 57 | 
20 | 20 to 40 | Cc1ccc(S(=O)(=O)N2c3ccccc3C[C@H]2C(=O)N2c3ccccc3C[C@H]2C(=O)NCCCn2ccnc2)cc1 [Example 16, (2S)-1-[((2S)-1-(4-methylphenylsulfonyl)indolin-2-yl)carbonyl]-N^3-(N-propylimidazole)indoline-2-carbamide] | 54 | 
21 |  | CC(=O)Nc1ccc(S(=O)(=O)N2c3ccccc3C[C@H]2C(=O)N[C@@H](CC(C)C)C(=O)O)cc1 [Example 11] |  | CD3-induced inhibition of proliferation in [%] [1]: 61%; Inhibition [%] of PPIase activity (human cyclophilin B): 40%
22 |  | indoline-2-carboxamide |  | inhibition of IL-2 proliferation (IL-2 proliferation [4]; 1 μmol): 12%; inhibition of IL-2 proliferation (IL-2 proliferation [4]; 10 μmol): 77%; IL-2-dependent inhibition of proliferation (IL-2 proliferation [5]): 29%
23 | 60 | COCCNC(=O)[C@H]1Cc2ccccc2N1C(=O)[C@H]1Cc2ccccc2N1S(=O)(=O)c1ccc(NC(C)=O)cc1 [Example 4] | 85 | 
24 | 20 to 40 | COCCNC(=O)[C@@H]1Cc2ccccc2N1S(=O)(=O)c1cccc2cccnc12 [Example 10, (2S)-1-[(8-quinolinylsulfonyl)]-N-(2-methoxyethyl)indolinecarbamide] | 59 | 
25 |  | CO[C@H]1C[C@@H]2CC[C@@H](C)[C@@](O)(O2)C(=O)C(=O)N2CCCC[C@H]2C(=O)O[C@H]([C@H](C)C[C@@H]2CC[C@@H](O)[C@H](OC)C2)CC(=O)[C@H](C)/C=C(\C)[C@@H](O)[C@@H](OC)C(=O)[C@H](C)C[C@H](C)/C=C/C=C/C=C/1C [rapamycin] |  | side effects [2]: manifold side effects, in particular of the kidneys, and neurotoxicity
26 | 0 to 20 | COC(=O)/C=C/c1ccc(NC(=O)[C@@H]2Cc3ccccc3N2S(=O)(=O)c2ccc(NC(C)=O)cc2)cc1 [Example 13, Methyl (E)-({(2S)-1-[4(acetylamino)phenylsulfonyl]indoln-2-yl}-carbonyl)-4-(aminophenyl)acrylate] | 46 | 
